From the kinase profiling compilation of Christmann-Franck et al. (2016)

How the values were obtained:
Experiment in all cases: radiometric filter-binding kinase assay
CaMK1 (human) = CaMK1 (human) (UniProt Q14012)
NEK6 (human) = NEK6 (human) (UniProt Q9HC98)
MAPK15 (human) = MAPK15 (human) (UniProt Q8TD08)
JAK2 JH1 JH2 (human) = JAK2 JH1 JH2 (human) (UniProt O60674)
RPS6KA5 KD1 KD2 (human) = RPS6KA5 KD1 KD2 (human) (UniProt O75582)
SRPK1 (human) = SRPK1 (human) (UniProt Q96SB4)
CSK (human) = CSK (human) (UniProt P41240)
MKNK1 (human) = MKNK1 (human) (UniProt Q9BUB5)
BRSK1 (human) = BRSK1 (human) (UniProt Q8TDC3)
PRKACA (human) = PRKACA (human) (UniProt P17612)
BTK (human) = BTK (human) (UniProt Q06187)
DYRK2 (human) = DYRK2 (human) (UniProt Q92630)
MARK1 (human) = MARK1 (human) (UniProt Q9P0L2)
INSR (human) = INSR (human) (UniProt P06213)
PHKG1 (human) = PHKG1 (human) (UniProt Q16816)
NUAK1 (human) = NUAK1 (human) (UniProt O60285)
EPHA4 (human) = EPHA4 (human) (UniProt P54764)
MST4 (human) = MST4 (human) (UniProt Q9P289)
INSRR (human) = INSRR (human) (UniProt P14616)
CDK2 CCNA2 (human) = CDK2 CCNA2 (human) (UniProt P20248+P24941)
MAP2K1 (human) = MAP2K1 (human) (UniProt Q02750)
MINK1 (human) = MINK1 (human) (UniProt Q8N4C8)
MAPKAPK2 (human) = MAPKAPK2 (human) (UniProt P49137)
EPHB2 (human) = EPHB2 (human) (UniProt P29323)
MARK2 (human) = MARK2 (human) (UniProt Q7KZI7)
ERBB4 (human) = ERBB4 (human) (UniProt Q15303)
PAK7 (human) = PAK7 (human) (UniProt Q9P286)
LCK (mouse) = conditions: accession and sequence are those of the human protein
EPHA2 (human) = EPHA2 (human) (UniProt P29317)
RIPK2 (human) = RIPK2 (human) (UniProt O43353)
HIPK3 (human) = HIPK3 (human) (UniProt Q9H422)
NEK2 (human) = NEK2 (human) (UniProt P51955)
CAMKK2 (human) = CAMKK2 (human) (UniProt Q96RR4)
PRKAA1 or PRKAA2 (rat) = conditions: accession and sequence are those of the human protein
PRKCA (human) = PRKCA (human) (UniProt P17252)

ERBB4 (human), sequence (Q15303 whole entry, looked up): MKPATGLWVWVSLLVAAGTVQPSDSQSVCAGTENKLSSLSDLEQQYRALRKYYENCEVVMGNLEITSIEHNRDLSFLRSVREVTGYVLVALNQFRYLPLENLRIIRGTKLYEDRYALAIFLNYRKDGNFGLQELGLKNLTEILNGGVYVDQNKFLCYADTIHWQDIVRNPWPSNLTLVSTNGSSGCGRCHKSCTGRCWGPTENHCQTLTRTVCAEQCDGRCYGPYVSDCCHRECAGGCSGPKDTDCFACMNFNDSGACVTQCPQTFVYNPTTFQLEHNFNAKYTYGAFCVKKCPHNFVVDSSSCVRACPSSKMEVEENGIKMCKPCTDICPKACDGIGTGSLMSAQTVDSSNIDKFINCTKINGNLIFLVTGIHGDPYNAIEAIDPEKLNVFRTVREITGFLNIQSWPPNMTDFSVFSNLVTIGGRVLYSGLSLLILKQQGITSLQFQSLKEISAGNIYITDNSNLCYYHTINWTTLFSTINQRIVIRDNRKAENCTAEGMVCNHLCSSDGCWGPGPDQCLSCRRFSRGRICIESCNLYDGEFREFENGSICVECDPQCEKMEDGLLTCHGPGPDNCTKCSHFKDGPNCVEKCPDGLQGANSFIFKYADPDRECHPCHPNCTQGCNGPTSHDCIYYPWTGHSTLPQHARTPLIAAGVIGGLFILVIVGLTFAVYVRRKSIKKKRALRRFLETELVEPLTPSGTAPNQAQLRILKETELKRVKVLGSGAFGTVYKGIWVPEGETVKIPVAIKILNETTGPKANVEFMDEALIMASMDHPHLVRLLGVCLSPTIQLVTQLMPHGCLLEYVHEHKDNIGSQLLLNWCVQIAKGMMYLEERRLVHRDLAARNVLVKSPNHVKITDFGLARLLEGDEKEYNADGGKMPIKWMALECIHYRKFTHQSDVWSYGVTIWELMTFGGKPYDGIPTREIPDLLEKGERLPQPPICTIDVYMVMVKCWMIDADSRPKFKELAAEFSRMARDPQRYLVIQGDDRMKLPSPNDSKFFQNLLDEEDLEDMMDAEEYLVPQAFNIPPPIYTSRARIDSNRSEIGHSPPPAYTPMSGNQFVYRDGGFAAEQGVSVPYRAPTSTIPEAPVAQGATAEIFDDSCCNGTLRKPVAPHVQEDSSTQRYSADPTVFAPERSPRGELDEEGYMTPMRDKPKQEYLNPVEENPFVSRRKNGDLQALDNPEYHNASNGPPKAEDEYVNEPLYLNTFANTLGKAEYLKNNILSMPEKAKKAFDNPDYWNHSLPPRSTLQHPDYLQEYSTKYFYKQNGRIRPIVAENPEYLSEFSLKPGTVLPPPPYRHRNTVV
MAPKAPK2 (human), sequence (P49137 whole entry, looked up): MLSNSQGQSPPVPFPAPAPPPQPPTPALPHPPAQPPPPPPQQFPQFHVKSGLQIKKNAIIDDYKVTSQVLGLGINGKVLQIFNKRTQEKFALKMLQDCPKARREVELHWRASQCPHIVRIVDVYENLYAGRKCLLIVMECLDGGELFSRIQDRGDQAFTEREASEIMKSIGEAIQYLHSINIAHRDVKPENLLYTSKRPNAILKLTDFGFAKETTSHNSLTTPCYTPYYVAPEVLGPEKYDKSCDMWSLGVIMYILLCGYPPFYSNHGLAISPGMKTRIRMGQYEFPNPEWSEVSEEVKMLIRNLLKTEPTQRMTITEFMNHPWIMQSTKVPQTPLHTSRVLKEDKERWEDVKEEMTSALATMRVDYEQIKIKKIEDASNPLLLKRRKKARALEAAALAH
BTK (human), sequence (Q06187 whole entry, looked up): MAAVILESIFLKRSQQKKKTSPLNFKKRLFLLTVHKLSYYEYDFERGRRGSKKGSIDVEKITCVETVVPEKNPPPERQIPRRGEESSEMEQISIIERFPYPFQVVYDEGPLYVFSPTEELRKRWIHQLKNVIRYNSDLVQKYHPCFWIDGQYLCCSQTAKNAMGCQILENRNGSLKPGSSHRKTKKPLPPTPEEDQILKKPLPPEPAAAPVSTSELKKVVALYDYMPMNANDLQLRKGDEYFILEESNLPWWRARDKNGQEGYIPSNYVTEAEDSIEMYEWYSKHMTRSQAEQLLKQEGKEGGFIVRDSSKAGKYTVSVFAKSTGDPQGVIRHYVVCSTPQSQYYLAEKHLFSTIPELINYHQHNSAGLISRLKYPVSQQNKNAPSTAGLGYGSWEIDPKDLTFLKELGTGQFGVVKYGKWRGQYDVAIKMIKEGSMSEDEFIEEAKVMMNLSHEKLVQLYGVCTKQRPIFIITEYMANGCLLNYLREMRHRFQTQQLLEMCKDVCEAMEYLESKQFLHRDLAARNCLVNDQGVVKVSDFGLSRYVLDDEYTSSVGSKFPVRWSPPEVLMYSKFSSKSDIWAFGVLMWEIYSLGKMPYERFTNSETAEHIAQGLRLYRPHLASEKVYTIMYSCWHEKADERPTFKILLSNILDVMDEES
MKNK1 (human), sequence (Q9BUB5 whole entry, looked up): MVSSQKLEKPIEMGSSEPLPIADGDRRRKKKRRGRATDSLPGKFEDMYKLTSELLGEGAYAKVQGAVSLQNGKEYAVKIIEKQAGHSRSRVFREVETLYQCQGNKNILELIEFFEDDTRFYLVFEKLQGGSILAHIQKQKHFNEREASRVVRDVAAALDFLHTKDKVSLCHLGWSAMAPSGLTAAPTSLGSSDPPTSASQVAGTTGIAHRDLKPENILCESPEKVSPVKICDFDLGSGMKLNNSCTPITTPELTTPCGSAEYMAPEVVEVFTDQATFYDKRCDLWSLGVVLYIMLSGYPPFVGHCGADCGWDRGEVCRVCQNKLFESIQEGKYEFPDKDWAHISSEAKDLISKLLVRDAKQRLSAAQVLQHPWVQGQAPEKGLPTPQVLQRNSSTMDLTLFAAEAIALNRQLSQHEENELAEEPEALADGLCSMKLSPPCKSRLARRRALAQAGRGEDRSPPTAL
MARK1 (human), sequence (Q9P0L2 whole entry, looked up): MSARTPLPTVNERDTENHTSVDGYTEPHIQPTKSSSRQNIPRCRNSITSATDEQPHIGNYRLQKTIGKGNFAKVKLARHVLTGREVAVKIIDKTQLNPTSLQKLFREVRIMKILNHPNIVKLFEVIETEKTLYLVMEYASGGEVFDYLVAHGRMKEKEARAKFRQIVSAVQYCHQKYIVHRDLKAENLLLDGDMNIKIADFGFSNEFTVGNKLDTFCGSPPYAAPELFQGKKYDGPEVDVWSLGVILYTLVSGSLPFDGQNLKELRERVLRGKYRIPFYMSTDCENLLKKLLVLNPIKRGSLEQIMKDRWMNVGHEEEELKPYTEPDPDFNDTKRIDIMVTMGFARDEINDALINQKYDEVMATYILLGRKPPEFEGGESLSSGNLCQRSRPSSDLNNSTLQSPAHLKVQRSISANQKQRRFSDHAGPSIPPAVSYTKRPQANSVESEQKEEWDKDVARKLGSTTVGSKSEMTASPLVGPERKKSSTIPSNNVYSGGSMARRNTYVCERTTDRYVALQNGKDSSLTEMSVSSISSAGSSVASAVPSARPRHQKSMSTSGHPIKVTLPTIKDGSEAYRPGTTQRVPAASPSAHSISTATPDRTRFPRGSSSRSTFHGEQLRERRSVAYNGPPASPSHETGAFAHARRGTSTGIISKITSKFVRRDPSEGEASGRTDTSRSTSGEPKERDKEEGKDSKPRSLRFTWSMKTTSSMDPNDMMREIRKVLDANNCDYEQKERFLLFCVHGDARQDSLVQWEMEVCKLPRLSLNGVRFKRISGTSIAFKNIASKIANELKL
BRSK1 (human), sequence (Q8TDC3 whole entry, looked up): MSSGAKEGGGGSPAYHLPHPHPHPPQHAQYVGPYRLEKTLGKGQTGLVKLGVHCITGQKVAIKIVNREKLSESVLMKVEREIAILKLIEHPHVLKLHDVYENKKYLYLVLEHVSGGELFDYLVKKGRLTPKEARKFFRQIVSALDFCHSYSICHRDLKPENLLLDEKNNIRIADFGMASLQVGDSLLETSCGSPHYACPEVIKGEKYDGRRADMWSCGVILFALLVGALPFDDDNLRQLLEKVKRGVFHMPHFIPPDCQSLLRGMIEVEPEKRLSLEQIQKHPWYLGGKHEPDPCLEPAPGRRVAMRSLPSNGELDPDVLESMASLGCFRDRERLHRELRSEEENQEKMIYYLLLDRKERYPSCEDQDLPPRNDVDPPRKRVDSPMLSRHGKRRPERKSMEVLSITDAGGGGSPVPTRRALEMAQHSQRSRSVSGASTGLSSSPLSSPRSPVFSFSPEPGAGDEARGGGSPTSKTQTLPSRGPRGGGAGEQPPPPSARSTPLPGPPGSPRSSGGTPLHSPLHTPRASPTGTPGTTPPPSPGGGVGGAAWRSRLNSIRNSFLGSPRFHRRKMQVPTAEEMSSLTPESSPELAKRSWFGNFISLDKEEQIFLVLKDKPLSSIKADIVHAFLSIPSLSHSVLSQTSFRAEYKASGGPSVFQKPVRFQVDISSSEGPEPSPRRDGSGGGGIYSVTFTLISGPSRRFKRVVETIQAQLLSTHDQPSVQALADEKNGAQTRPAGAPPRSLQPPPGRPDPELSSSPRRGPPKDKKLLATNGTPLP
SRPK1 (human), sequence (Q96SB4 whole entry, looked up): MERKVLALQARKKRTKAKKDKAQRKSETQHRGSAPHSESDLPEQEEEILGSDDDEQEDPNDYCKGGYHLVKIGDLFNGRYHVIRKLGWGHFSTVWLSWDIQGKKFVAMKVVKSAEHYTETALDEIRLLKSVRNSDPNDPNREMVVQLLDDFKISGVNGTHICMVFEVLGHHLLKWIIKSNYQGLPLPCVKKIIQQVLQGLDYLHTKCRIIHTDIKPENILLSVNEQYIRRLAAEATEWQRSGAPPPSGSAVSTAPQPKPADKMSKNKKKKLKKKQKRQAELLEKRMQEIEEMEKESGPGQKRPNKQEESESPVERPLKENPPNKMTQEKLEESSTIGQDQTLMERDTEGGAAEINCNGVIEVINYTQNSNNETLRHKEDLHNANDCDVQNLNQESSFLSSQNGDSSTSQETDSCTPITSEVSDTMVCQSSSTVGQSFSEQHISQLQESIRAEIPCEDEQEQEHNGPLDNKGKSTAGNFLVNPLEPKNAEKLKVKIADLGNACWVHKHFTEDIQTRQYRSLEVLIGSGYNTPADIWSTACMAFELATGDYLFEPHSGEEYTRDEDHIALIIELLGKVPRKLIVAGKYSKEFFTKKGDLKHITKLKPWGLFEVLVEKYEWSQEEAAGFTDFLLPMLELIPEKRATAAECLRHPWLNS

Compound COc1cc(O)c2c(c1)[C@H]1OC1C[C@H](O)[C@H](O)C(=O)/C=C\C[C@H](C)OC2=O (some centres undefined) has a residual activity (CaMK1 (human); compound 0.01 µM) of 96%, a residual activity (CaMK1 (human); compound 0.1 µM) of 96% and a residual activity (CaMK1 (human); compound 1.0 µM) of 112%. The residual activity (NEK6 (human); compound 0.01 µM) was 97%, the residual activity (NEK6 (human); compound 0.1 µM) was 90% and the residual activity (NEK6 (human); compound 1.0 µM) was 98%. It also gave a residual activity (MAPK15 (human); compound 0.01 µM) of 80%, a residual activity (MAPK15 (human); compound 0.1 µM) of 27% and a residual activity (MAPK15 (human); compound 1.0 µM) of 11%. It also gave a residual activity (JAK2 JH1 JH2 (human); compound 0.01 µM) of 84%, a residual activity (JAK2 JH1 JH2 (human); compound 0.1 µM) of 101% and a residual activity (RPS6KA5 KD1 KD2 (human); compound 0.01 µM) of 108%. The residual activity (RPS6KA5 KD1 KD2 (human); compound 0.1 µM) was 104%, the residual activity (RPS6KA5 KD1 KD2 (human); compound 1.0 µM) was 104% and the residual activity (SRPK1 (human); compound 0.01 µM) was 111%. The residual activity (SRPK1 (human); compound 0.1 µM) was 95%, the residual activity (SRPK1 (human); compound 1.0 µM) was 100% and the residual activity (CSK (human); compound 0.1 µM) was 105%. It also gave a residual activity (MKNK1 (human); compound 0.01 µM) of 100%, a residual activity (MKNK1 (human); compound 0.1 µM) of 87% and a residual activity (MKNK1 (human); compound 1.0 µM) of 55%. The residual activity (BRSK1 (human); compound 0.01 µM) was 90%, the residual activity (BRSK1 (human); compound 0.1 µM) was 90% and the residual activity (BRSK1 (human); compound 1.0 µM) was 82%. It also gave a residual activity (PRKACA (human); compound 0.01 µM) of 91%, a residual activity (PRKACA (human); compound 0.1 µM) of 99% and a residual activity (PRKACA (human); compound 1.0 µM) of 100%. The residual activity (BTK (human); compound 0.01 µM) was 105%, the residual activity (BTK (human); compound 0.1 µM) was 115% and the residual activity (BTK (human); compound 1.0 µM) was 109%. It also gave a residual activity (DYRK2 (human); compound 0.01 µM) of 109%, a residual activity (DYRK2 (human); compound 0.1 µM) of 105% and a residual activity (MARK1 (human); compound 0.01 µM) of 101%. It also gave a residual activity (MARK1 (human); compound 0.1 µM) of 99%, a residual activity (MARK1 (human); compound 1.0 µM) of 101% and a residual activity (INSR (human); compound 0.01 µM) of 112%. For the same compound, the residual activity (INSR (human); compound 0.1 µM) was 116%, the residual activity (INSR (human); compound 1.0 µM) was 97% and the residual activity (PHKG1 (human); compound 0.01 µM) was 100%. The residual activity (PHKG1 (human); compound 0.1 µM) was 98%, the residual activity (PHKG1 (human); compound 1.0 µM) was 107% and the residual activity (NUAK1 (human); compound 0.01 µM) was 93%. The residual activity (NUAK1 (human); compound 0.1 µM) was 99%, the residual activity (NUAK1 (human); compound 1.0 µM) was 105% and the residual activity (EPHA4 (human); compound 0.01 µM) was 109%. It also gave a residual activity (EPHA4 (human); compound 0.1 µM) of 122%, a residual activity (EPHA4 (human); compound 1.0 µM) of 107% and a residual activity (MST4 (human); compound 0.01 µM) of 96%. It also gave a residual activity (MST4 (human); compound 0.1 µM) of 106%, a residual activity (MST4 (human); compound 1.0 µM) of 86% and a residual activity (INSRR (human); compound 0.01 µM) of 104%. The residual activity (INSRR (human); compound 0.1 µM) was 108%, the residual activity (INSRR (human); compound 1.0 µM) was 113% and the residual activity (CDK2 CCNA2 (human); compound 0.01 µM) was 91%. It also gave a residual activity (CDK2 CCNA2 (human); compound 0.1 µM) of 81%, a residual activity (CDK2 CCNA2 (human); compound 1.0 µM) of 76% and a residual activity (MAP2K1 (human); compound 0.01 µM) of 101%. The residual activity (MAP2K1 (human); compound 0.1 µM) was 21%, the residual activity (MAP2K1 (human); compound 1.0 µM) was 1% and the residual activity (MINK1 (human); compound 0.01 µM) was 106%. It also gave a residual activity (MINK1 (human); compound 0.1 µM) of 111%, a residual activity (MINK1 (human); compound 1.0 µM) of 102% and a residual activity (MAPKAPK2 (human); compound 0.01 µM) of 93%. For the same compound, the residual activity (MAPKAPK2 (human); compound 0.1 µM) was 101%, the residual activity (EPHB2 (human); compound 0.01 µM) was 124% and the residual activity (EPHB2 (human); compound 0.1 µM) was 118%. It also gave a residual activity (EPHB2 (human); compound 1.0 µM) of 115%, a residual activity (MARK2 (human); compound 0.01 µM) of 90% and a residual activity (MARK2 (human); compound 0.1 µM) of 100%. For the same compound, the residual activity (MARK2 (human); compound 1.0 µM) was 100%, the residual activity (ERBB4 (human); compound 0.1 µM) was 104% and the residual activity (ERBB4 (human); compound 1.0 µM) was 105%. It also gave a residual activity (PAK7 (human); compound 0.01 µM) of 102%, a residual activity (PAK7 (human); compound 0.1 µM) of 115% and a residual activity (LCK (mouse); compound 0.01 µM) of 79%. For the same compound, the residual activity (LCK (mouse); compound 0.1 µM) was 93%, the residual activity (LCK (mouse); compound 1.0 µM) was 69% and the residual activity (EPHA2 (human); compound 0.01 µM) was 97%. The residual activity (EPHA2 (human); compound 0.1 µM) was 98%, the residual activity (EPHA2 (human); compound 1.0 µM) was 56% and the residual activity (RIPK2 (human); compound 0.01 µM) was 104%. The residual activity (RIPK2 (human); compound 0.1 µM) was 102%, the residual activity (RIPK2 (human); compound 1.0 µM) was 85% and the residual activity (HIPK3 (human); compound 0.01 µM) was 104%. It also gave a residual activity (HIPK3 (human); compound 0.1 µM) of 100%, a residual activity (HIPK3 (human); compound 1.0 µM) of 102% and a residual activity (NEK2 (human); compound 0.01 µM) of 103%. The residual activity (NEK2 (human); compound 0.1 µM) was 127%, the residual activity (NEK2 (human); compound 1.0 µM) was 105% and the residual activity (CAMKK2 (human); compound 0.01 µM) was 102%. It also gave a residual activity (CAMKK2 (human); compound 0.1 µM) of 99%, a residual activity (PRKAA1 or PRKAA2 (rat); compound 0.01 µM) of 105% and a residual activity (PRKAA1 or PRKAA2 (rat); compound 0.1 µM) of 105%. The residual activity (PRKAA1 or PRKAA2 (rat); compound 1.0 µM) was 94%, the residual activity (PRKCA (human); compound 0.01 µM) was 88% and the residual activity (PRKCA (human); compound 0.1 µM) was 88%. The residual activity (PRKCA (human); compound 1.0 µM) was 92%.
For Cc1ccc2c(c1)C(=O)[C@@]1(O)CCN(c3ccccc3)C1=N2, the residual activity (CaMK1 (human); compound 10.0 µM) was 74%, the residual activity (NEK6 (human); compound 10.0 µM) was 107% and the residual activity (NEK6 (human); compound 100.0 µM) was 85%. It also gave a residual activity (MAPK15 (human); compound 10.0 µM) of 89%, a residual activity (JAK2 JH1 JH2 (human); compound 10.0 µM) of 101% and a residual activity (RPS6KA5 KD1 KD2 (human); compound 10.0 µM) of 83%. The residual activity (RPS6KA5 KD1 KD2 (human); compound 100.0 µM) was 75%, the residual activity (SRPK1 (human); compound 10.0 µM) was 88% and the residual activity (CSK (human); compound 10.0 µM) was 69%. For the same compound, the residual activity (CSK (human); compound 100.0 µM) was 67%, the residual activity (MKNK1 (human); compound 10.0 µM) was 97% and the residual activity (BRSK1 (human); compound 10.0 µM) was 106%. It also gave a residual activity (PRKACA (human); compound 10.0 µM) of 101%, a residual activity (PRKACA (human); compound 100.0 µM) of 70% and a residual activity (BTK (human); compound 10.0 µM) of 82%. For the same compound, the residual activity (DYRK2 (human); compound 10.0 µM) was 76%, the residual activity (MARK1 (human); compound 10.0 µM) was 96% and the residual activity (INSR (human); compound 10.0 µM) was 95%. The residual activity (PHKG1 (human); compound 10.0 µM) was 114%, the residual activity (PHKG1 (human); compound 100.0 µM) was 86% and the residual activity (NUAK1 (human); compound 10.0 µM) was 97%. The residual activity (EPHA4 (human); compound 10.0 µM) was 108%, the residual activity (MST4 (human); compound 10.0 µM) was 99% and the residual activity (INSRR (human); compound 10.0 µM) was 88%. It also gave a residual activity (CDK2 CCNA2 (human); compound 10.0 µM) of 116%, a residual activity (CDK2 CCNA2 (human); compound 100.0 µM) of 92% and a residual activity (MAP2K1 (human); compound 10.0 µM) of 89%. The residual activity (MAP2K1 (human); compound 100.0 µM) was 99%, the residual activity (MINK1 (human); compound 10.0 µM) was 72% and the residual activity (MAPKAPK2 (human); compound 10.0 µM) was 82%. For the same compound, the residual activity (MAPKAPK2 (human); compound 100.0 µM) was 80%, the residual activity (EPHB2 (human); compound 10.0 µM) was 116% and the residual activity (MARK2 (human); compound 10.0 µM) was 93%. For the same compound, the residual activity (ERBB4 (human); compound 10.0 µM) was 87%, the residual activity (PAK7 (human); compound 10.0 µM) was 73% and the residual activity (LCK (mouse); compound 10.0 µM) was 106%. The residual activity (LCK (mouse); compound 100.0 µM) was 72%, the residual activity (EPHA2 (human); compound 10.0 µM) was 109% and the residual activity (RIPK2 (human); compound 10.0 µM) was 90%. The residual activity (HIPK3 (human); compound 10.0 µM) was 103%, the residual activity (NEK2 (human); compound 10.0 µM) was 77% and the residual activity (NEK2 (human); compound 100.0 µM) was 82%. The residual activity (CAMKK2 (human); compound 10.0 µM) was 90%, the residual activity (PRKAA1 or PRKAA2 (rat); compound 10.0 µM) was 92% and the residual activity (PRKAA1 or PRKAA2 (rat); compound 100.0 µM) was 60%. The residual activity (PRKCA (human); compound 10.0 µM) was 103% and the residual activity (PRKCA (human); compound 100.0 µM) was 75%.
